Experimental data reported in PubChem BioAssay AID489024 (Sanford-Burnham Center for Chemical Genomics, 2010).
Active and inactive are the calls of the source.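 The calls were made as follows: active = compounds whose mean EC50, the dose giving half the maximal reporter activation, is at or below a set limit; inactive = the rest.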

Target: CHO-CHOP luciferase reporter, UPR activation, luminescence
Test: activators of PERK-eIF2a-CHOP UPR arm, confirmation, CHO-CHOP cells, luciferase luminescence (AID 489024);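 also: compounds added alone to reporter cells with no tunicamycin stress co-treatment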

N#CC1=C(N)OC2=C(CC/C2=C\c2ccccc2)C1c1ccccc1 (stereo not drawn) and S=c1[nH]nc(-c2cc(-c3ccccc3)n[nH]2)n1/N=C/C(Br)=C/c1ccccc1 are within 1.5-fold of each other in EC50: 6.51 µM for the first, 7.79 µM for the second.

COc1cc(/C=C2\CC(C(C)(C)C)C/C(=C\c3cc(OC)c(OC)c(OC)c3)C2=O)cc(OC)c1OC (stereo not drawn) and CCCN1C/C(=C/c2ccc3c(c2)OCO3)C(=O)/C(=C/c2ccc3c(c2)OCO3)C1 are within 1.5-fold of each other in EC50: 6.19 µM for the first, 7.78 µM for the second.

CCn1c(-c2ccccc2)c(C(=O)CCl)c2ccccc21 and Cc1ccc(-c2cc(NC(=O)CCl)n(-c3ccccc3)n2)cc1 are within 1.5-fold of each other in EC50: 8.47 µM for the first, 6.42 µM for the second.

CCNc1ccccc1CP(=O)(c1ccccc1)c1ccccc1O (stereo not drawn) and O=C(Oc1ccccc1/C=C\C(=O)c1cc2ccccc2o1)c1ccccc1 are within 1.5-fold of each other in EC50: 15 µM for the first, 12.9 µM for the second.

CC(C)(C)C1=CC(=O)C(=O)C(C(C)(C)C)=C1 and Cc1ccc2c(C(=O)CCl)c(C)[nH]c2c1 are within 1.5-fold of each other in EC50: 7.59 µM for the first, 11.2 µM for the second.

Cc1cc(C(=O)CCl)c(C)n1-c1cccc([N+](=O)[O-])c1 and CCOc1ccc(-n2c(C)cc(C(=O)CCl)c2C)cc1 are within 1.5-fold of each other in EC50: 8.64 µM for the first, 6.97 µM for the second.

Going from CC(C)N1CSC(=S)N(Cc2ccccc2)C1 to S=C(Nc1ccccc1)Nc1nccs1, the EC50 rises from 10.6 µM to 17.5 µM (1.7-fold). The first is the more potent here.

O=C(N/N=C/c1ccccn1)c1sc2ccccc2c1Cl and COc1ccc(C(=O)Nc2ccccc2C(=O)N/N=C/c2ccccn2)cc1OC are within 1.5-fold of each other in EC50: 7.31 µM for the first, 6.44 µM for the second.

Going from COCc1cc(C)nc(OCC(=O)N/N=C/c2ccc(-c3cc([N+](=O)[O-])ccc3Cl)o2)c1C#N to COc1ccc(-c2cc(-c3ccccc3)c(C#N)c(S(C)(=O)=O)n2)cc1, the EC50 falls from 14.3 µM to 5.18 µM (2.8-fold).

First: Oc1[nH]c2ccc(Br)cc2c1N=NC(=S)N1CCOCC1
Second: Oc1[nH]c2ccccc2c1N=NC(=S)N1CCOCC1
The EC50 of the first is 1.8-fold lower: 4.28 µM for the first, 7.74 µM for the second.

COc1cccc(N=Nc2ccc(O)c3ncccc23)c1 and COc1ccccc1N=Cc1c(O)c2ccccc2oc1=O are within 1.5-fold of each other in EC50: 12.7 µM for the first, 12.5 µM for the second.

C/C(=N\Nc1ncnc2sc(C)c(C)c12)c1ccccn1 and O=C(Nc1nc2c(F)cc(F)cc2s1)c1ccccn1 are within 1.5-fold of each other in EC50: 5.59 µM for the first, 6.35 µM for the second.

Compared with Oc1c(CN2CCCCC2)cc(Br)c2cccnc12, CCOC(=O)N1CCN(Cc2ccc(O)c3ncccc23)CC1 is 1.5-fold higher in EC50: 10.6 µM for the first, 16.4 µM for the second. The first is the more potent here.

Compared with Cc1ccc(N2C(=O)NC(=O)/C(=C/c3cnn(-c4ccc(C)cc4)c3)C2=O)cc1, COc1ccc(N2C(=O)/C(=C/c3cccs3)C(=O)NC2=S)cc1 is 1.9-fold lower in EC50: 16.9 µM for the first, 9.09 µM for the second.

First: CC(C)C(=O)N1CCN(c2ccc(NC(=O)c3ccc([N+](=O)[O-])o3)cc2)CC1
Second: O=C(Nc1ccc(N2CCOCC2)cc1)c1ccc([N+](=O)[O-])o1
The EC50 of the first is 2.8-fold lower: 1.64 µM for the first, 4.64 µM for the second.

Going from O=C(CSc1ccc2ccccc2c1)NCCc1ccc(O)c(O)c1 to Cc1cc(SCC(=O)N/N=C/c2ccc(O)c(O)c2)nc2ccccc12, the EC50 rises from 8.44 µM to 18.3 µM (2.2-fold).

First: Cc1ccc(S(=O)(=O)Nc2cccc3cccnc23)c([N+](=O)[O-])c1
Second: O=S(=O)(Nc1cccc2cccnc12)c1ccc(S(=O)(=O)N2CCCC2)cc1
The EC50 of the first is 1.9-fold lower: 7.17 µM for the first, 13.9 µM for the second. The first is the more potent here.

First: Cc1ccc(C[n+]2c(-c3ccc(C)cc3)cc(-c3ccc(C)cc3)cc2-c2ccc(C)cc2)cc1
Second: Cc1ccc(C(=O)/C=C/C(=O)c2ccc(C)cc2)cc1
The EC50 of the first is 1.8-fold lower: 4.67 µM for the first, 8.35 µM for the second.

COc1cc(SC#N)ccc1N=Cc1c(C)[nH]n(-c2ccc(Cl)cc2)c1=O and CCOC(=O)Cc1csc(/N=C/c2c(O)n(-c3ccc(C)c(C)c3)c(=O)c3ccccc23)n1 are within 1.5-fold of each other in EC50: 11.9 µM for the first, 10.7 µM for the second.

Going from COc1ccccc1/C=N\Nc1cc(C)nc(-n2nc(C)cc2C)n1 to COc1ccccc1-c1nnc(Nc2nc3c(OC)cccc3s2)o1, the EC50 falls from 13.9 µM to 2.48 µM (5.6-fold).

Going from CC(C)N=c1scc(-c2cccs2)n1/N=C/c1ccc(O)c(O)c1O to Oc1ccc(-c2csc(-c3ccccc3)n2)cc1O, the EC50 falls from 11.6 µM to 5.57 µM (2.1-fold).

First: Cc1cccc(CS(=O)(=O)c2ncc(Cl)c(C(=O)Nc3ccc(F)cc3)n2)c1
Second: O=C(Nc1ccc(Cc2ccncc2)cc1)c1ccc([N+](=O)[O-])o1
The EC50 of the first is 5.9-fold higher: 9.1 µM for the first, 1.54 µM for the second.

Going from C/C(=N\NC(=O)c1cc(-c2cccs2)nc2ccccc12)c1ccccn1 to CC(=O)c1cccc(N=Cc2c(O)c3ccccc3oc2=O)c1, the EC50 rises from 4.97 µM to 9.66 µM (1.9-fold).

Compared with Cc1cc(C(=O)c2ccc(Cl)cc2)c(NC(=O)CCl)s1, CCOC(=O)/C=c1\s/c(=C\c2ccc3cc(OC)ccc3c2)c(=O)n1CC(=O)NCC1CCCO1 (stereo not drawn) is 1.5-fold lower in EC50: 16.4 µM for the first, 10.7 µM for the second. The second is the more potent here.

Compared with O=[N+]([O-])c1cc(O)c2ncccc2c1, O=[N+]([O-])c1cc(-c2ncccn2)c([N+](=O)[O-])s1 is 1.8-fold lower in EC50: 13.3 µM for the first, 7.51 µM for the second. The second is the more potent here.

O=C(N/N=C/c1ccc(O)c(O)c1)NC12CC3CC(CC(C3)C1)C2 and Oc1ccc(/C=N/Nc2nc(N3CCCC3)nc(N3CCCC3)n2)cc1O are within 1.5-fold of each other in EC50: 3.34 µM for the first, 2.93 µM for the second.

O=S(=O)(CCSc1nc2ccccc2s1)c1nc2ccccc2s1 and OCCNc1nc(Nc2ccc(Br)cc2)nc2ccccc12 are within 1.5-fold of each other in EC50: 11.6 µM for the first, 8.18 µM for the second.

O=C(CCN1C(=O)C2C3C=CC(C4CC34)C2C1=O)Oc1cccc2cccnc12 (stereo not drawn) and O=C(c1cccs1)N(C(=O)c1cccs1)c1ccc(Br)cn1 are within 1.5-fold of each other in EC50: 11.2 µM for the first, 13.9 µM for the second.

COc1ccc(-c2cc(C(F)F)n3ncc(C(=O)n4ccnc4C)c3n2)cc1 and COc1ccc(-c2nc(-c3ccccc3)nc(Cl)c2C#N)cc1 are within 1.5-fold of each other in EC50: 13.3 µM for the first, 13.5 µM for the second.

For COC(=O)C1=C(C)N(c2ccc(C)c(C)c2)/C(=C/c2cccs2)C1=O, the EC50 was > 80 µM (inactive).
For CCOC(=O)c1cnc(-n2nc(C)cc2C)nc1NC1CCCCC1, the EC50 was > 80 µM (inactive).
CC1=C/C(=N\OC(=O)/C=C/c2ccccc2)C(C)=CC1=O was tested, and the EC50 was > 80 µM (inactive).
With CC(C)[C@H](NC(=O)OC(C)(C)C)c1nnc(S(=O)(=O)Cc2c(F)cccc2Cl)o1 the EC50 was > 80 µM (inactive).
CC1CCCCC1N1CN=C(Nc2nc3ccccc3s2)NC1 (stereo not drawn) was tested, and the EC50 was “inactive”.
With COc1cccc(-n2c(SCC(=O)N3CCc4ccccc43)nnc2-c2c[nH]c3ccccc23)c1 the EC50 was > 80 µM (inactive).
For COc1ccc(C(=O)C(CN2CCOCC2)c2ccccc2)cc1 (stereo not drawn), the EC50 was “inactive”.
With O=[N+]([O-])c1ccc(Sc2cccc3cccnc23)c([N+](=O)[O-])c1 the EC50 was > 80 µM (inactive).
In the case of COc1ccc(C(=O)NCC(=O)N/N=C/c2ccc([N+](=O)[O-])o2)cc1OC, the EC50 is reported as > 80 µM (inactive).
With CCc1cccc(CC)c1NC(=O)/C(C#N)=C/c1ccccc1C(F)(F)F the EC50 was > 80 µM (inactive).
In the case of COc1ccc(C(c2c(C)[nH]n(C(N)=S)c2=O)C(C#N)C#N)cc1 (stereo not drawn), the EC50 is reported as “inactive”.
With Cc1cc(C)n(-c2nc(NC(C)(C)C)nc(NC(C)(C)C)n2)n1 the EC50 was > 80 µM (inactive).
In the case of CS(=O)(=O)Oc1ccc2c(c1)O/C(=C\C=C\c1ccccc1)C2=O, the EC50 is reported as “inactive”.
CCOC(=O)c1c(CSC(=N)N)n(-c2ccc(C)cc2)c2cc(Br)c(OC(C)=O)cc12 was tested, and the EC50 was > 80 µM (inactive).
With N#C/C(=C\c1ccc(OCc2ccccc2)cc1)C(=O)Nc1nc2c(s1)CCN(Cc1ccccc1)C2 the EC50 was “inactive”.
In the case of COC(=O)c1cc(=O)n(CCc2ccc(OC)cc2)c(=Nc2ccc(F)c(Cl)c2)s1, the EC50 is reported as “inactive”.
Oc1c(C(c2ccccn2)N2CCC(Cc3ccccc3)CC2)cc(Cl)c2cccnc12 (stereo not drawn) was tested, and the EC50 was “inactive”.
For CC(=O)c1ccc(NC(=O)COC(=O)c2ccccc2N=Nc2ccc(N(C)C)cc2)cc1, the EC50 was > 80 µM (inactive).
With COc1ccc(-c2ccc(-c3nc4c(c(=O)[nH]c(=O)n4Cc4ccccc4)n3C)o2)c([N+](=O)[O-])c1 the EC50 was > 80 µM (inactive).
In the case of c1ccc(-c2nc(N3CCCCCC3)c3ccccc3n2)nc1, the EC50 is reported as “inactive”.
